Results: patent US11945822B2, “Pyrazolo-triazine and/or pyrazolo-pxrimidine derivatives as selective inhibitor of cyclin dependent kinase” (QURIENT CO., LTD., priority 2018, dated 2024)

What follows are compounds tested against T1, CDK1/Cyclin B (Homo sapiens, UniProt P06493) (assay: Enzymatic assay for CDK1 (FRET based LANCE Ultra kinase assay)). Details: read-out: CDK1 enzymatic activity (IC50 activity range).
T1 construct: purchased Invitrogen PR4768C
Type: biochemical
Method in brief: (§1)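 Each CDK complex ([…]) phosphorylated 68 nM ULight-MBP peptide with ATP at Km for 60 min at 23° C., against 8 compound doses (4-fold dilutions). EDTA/Eu-anti-phospho-MBP detection, 60 min, then TR-FRET emission at 615 and 665 nm.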

T1 sequence (P06493 whole entry): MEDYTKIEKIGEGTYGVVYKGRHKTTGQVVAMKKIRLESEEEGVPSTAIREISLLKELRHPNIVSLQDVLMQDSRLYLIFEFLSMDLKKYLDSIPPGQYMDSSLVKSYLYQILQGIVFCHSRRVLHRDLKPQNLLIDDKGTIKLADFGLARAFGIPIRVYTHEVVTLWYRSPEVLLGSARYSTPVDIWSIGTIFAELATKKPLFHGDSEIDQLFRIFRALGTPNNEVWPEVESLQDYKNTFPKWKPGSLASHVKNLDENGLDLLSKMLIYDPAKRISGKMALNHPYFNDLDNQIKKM
T1 sequence (P14635 whole entry partner): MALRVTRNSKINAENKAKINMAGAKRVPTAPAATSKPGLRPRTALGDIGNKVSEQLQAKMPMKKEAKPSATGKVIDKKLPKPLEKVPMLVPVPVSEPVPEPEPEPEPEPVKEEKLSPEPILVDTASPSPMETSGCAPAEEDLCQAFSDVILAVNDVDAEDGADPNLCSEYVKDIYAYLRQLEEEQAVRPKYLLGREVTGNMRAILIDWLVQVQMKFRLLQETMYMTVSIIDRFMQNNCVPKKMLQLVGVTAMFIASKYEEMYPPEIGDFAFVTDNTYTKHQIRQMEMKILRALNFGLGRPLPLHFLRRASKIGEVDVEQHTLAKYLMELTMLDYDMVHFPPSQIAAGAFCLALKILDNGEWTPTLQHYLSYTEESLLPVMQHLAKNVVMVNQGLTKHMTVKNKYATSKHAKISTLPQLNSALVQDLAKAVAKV

IC50	Compound
> 1000 nM	CC(C)c1cnn2c(NCc3ccccc3-c3ccc4ccccc4n3)nc(N3CCNC[C@H]3CO)nc12 [Compound 271]
> 1000 nM	CC(C)c1cnn2c(NCc3c(Cl)cccc3-n3ccc(C(C)(C)O)n3)nc(Nc3cc[nH]c3)nc12 [Compound 277]
> 1000 nM	CC(C)c1cnn2c(NCc3ccccc3-c3ccc4ccccc4n3)nc(NCC[C@@H](O)CN)nc12 [Compound 251]

These compounds were tested against T2, CDK2/Cyclin A (Homo sapiens, UniProt P24941) (assay: Enzymatic assay for CDK2 (FRET based LANCE Ultra kinase assay)). Details: read-out: CDK2 enzymatic activity (IC50 activity range).
T2 construct: purchased Invitrogen PV6290
Type: biochemical
Method in brief: as §1

IC50	Compound
> 1000 nM	CC(C)c1cnn2c(NCc3ccccc3-c3ccc4ccccc4n3)nc(N3CCNC[C@H]3CO)nc12 [Compound 271]
> 1000 nM	CC(C)c1cnn2c(NCc3c(Cl)cccc3-n3ccc(C(C)(C)O)n3)nc(Nc3cc[nH]c3)nc12 [Compound 277]
> 1000 nM	CC(C)c1cnn2c(NCc3ccccc3-c3ccc4ccccc4n3)nc(NCC[C@@H](O)CN)nc12 [Compound 251]

These compounds were tested against T3, CDK5/p25 (Homo sapiens, UniProt Q00535) (assay: Enzymatic assay for CDK5 (FRET based LANCE Ultra kinase assay)). Details: read-out: CDK5 enzymatic activity (IC50 activity range).
T3 construct: purchased Invitrogen PR8543B
Type: biochemical
Method in brief: as §1

T3 sequence (Q00535 whole entry): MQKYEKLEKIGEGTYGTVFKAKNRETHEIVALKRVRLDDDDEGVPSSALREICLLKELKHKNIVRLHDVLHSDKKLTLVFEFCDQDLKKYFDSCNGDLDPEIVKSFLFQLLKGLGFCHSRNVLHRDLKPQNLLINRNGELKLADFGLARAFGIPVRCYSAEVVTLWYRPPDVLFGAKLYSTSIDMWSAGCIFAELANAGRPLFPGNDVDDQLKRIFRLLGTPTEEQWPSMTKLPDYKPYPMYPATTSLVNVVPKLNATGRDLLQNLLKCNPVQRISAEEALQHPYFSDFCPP
T3 sequence (Q15078 99-307 partner limits assumed): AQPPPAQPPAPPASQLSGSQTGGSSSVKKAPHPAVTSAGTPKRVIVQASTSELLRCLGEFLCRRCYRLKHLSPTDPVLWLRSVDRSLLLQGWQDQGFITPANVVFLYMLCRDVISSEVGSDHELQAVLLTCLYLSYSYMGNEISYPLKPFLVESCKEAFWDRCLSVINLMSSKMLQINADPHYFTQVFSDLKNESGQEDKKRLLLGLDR

IC50	Compound
> 1000 nM	CC(C)c1cnn2c(NCc3ccccc3-c3ccc4ccccc4n3)nc(N3CCNC[C@H]3CO)nc12 [Compound 271]
> 1000 nM	CC(C)c1cnn2c(NCc3c(Cl)cccc3-n3ccc(C(C)(C)O)n3)nc(Nc3cc[nH]c3)nc12 [Compound 277]
> 1000 nM	CC(C)c1cnn2c(NCc3ccccc3-c3ccc4ccccc4n3)nc(NCC[C@@H](O)CN)nc12 [Compound 251]

What follows are compounds tested against T4, CDK7/Cyclin H/MNAT1 (Homo sapiens, UniProt P50613) (assay: Enzymatic assay for CDK7 (FRET based LANCE Ultra kinase assay)). Details: CDK1/CDK7.
T4 construct: purchased Invitrogen PR6749B
Type: biochemical
Method in brief: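 Inhibition was measured at Km ATP by time-resolved FRET between a Eu anti-phospho antibody and a phosphorylated ULight peptide. The enzyme was the purified CDK7/cyclin complex, and data were curve-fitted.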

T4 sequence (P50613 whole entry): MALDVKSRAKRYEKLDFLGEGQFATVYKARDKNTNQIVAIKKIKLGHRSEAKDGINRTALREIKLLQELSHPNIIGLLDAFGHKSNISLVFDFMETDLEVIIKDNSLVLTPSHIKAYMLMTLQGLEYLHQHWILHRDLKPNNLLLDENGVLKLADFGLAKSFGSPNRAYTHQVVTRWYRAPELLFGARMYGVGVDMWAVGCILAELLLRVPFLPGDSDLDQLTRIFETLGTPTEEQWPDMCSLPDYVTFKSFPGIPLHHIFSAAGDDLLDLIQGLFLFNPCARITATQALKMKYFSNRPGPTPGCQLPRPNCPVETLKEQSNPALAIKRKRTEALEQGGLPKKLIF
T4 sequence (P51946 whole entry partner): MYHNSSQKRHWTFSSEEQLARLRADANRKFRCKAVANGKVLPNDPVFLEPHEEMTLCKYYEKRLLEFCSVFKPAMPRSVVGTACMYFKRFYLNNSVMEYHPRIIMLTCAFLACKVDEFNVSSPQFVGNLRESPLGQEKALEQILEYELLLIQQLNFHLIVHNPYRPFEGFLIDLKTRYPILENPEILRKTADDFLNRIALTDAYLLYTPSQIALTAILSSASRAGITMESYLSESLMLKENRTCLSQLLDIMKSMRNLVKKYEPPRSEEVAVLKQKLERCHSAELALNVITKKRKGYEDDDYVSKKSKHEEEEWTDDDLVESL
T4 sequence (P51948 whole entry partner): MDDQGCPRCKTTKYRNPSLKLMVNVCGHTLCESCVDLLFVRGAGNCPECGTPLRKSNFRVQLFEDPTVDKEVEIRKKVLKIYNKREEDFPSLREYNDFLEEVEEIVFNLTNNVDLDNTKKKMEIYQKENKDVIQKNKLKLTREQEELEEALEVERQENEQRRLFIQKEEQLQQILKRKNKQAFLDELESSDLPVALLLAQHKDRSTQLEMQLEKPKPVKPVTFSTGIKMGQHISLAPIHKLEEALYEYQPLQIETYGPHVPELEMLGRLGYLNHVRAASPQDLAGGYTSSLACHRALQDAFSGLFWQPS

CDK1/CDK7: Selectivity of CDK7 inhibition over CDK1 inhibition	Compound
A (A=greater than 200 fold)	CC(C)c1cnn2c(NCc3ccccc3-c3ccc4ccccc4n3)nc(N3CCNC[C@H]3CO)nc12 [Compound 271]
C (C=less than 20 fold)	CC(C)c1cnn2c(NCc3c(Cl)cccc3-n3ccc(C(C)(C)O)n3)nc(Nc3cc[nH]c3)nc12 [Compound 277]
A (A=greater than 200 fold)	CC(C)c1cnn2c(NCc3ccccc3-c3ccc4ccccc4n3)nc(NCC[C@@H](O)CN)nc12 [Compound 251]

Same assay, conditions: CDK2/CDK7

CDK2/CDK7: Selectivity of CDK7 inhibition over CDK2 inhibition	Compound
A (A=greater than 200 fold)	CC(C)c1cnn2c(NCc3ccccc3-c3ccc4ccccc4n3)nc(N3CCNC[C@H]3CO)nc12 [Compound 271]
C (C=less than 20 fold)	CC(C)c1cnn2c(NCc3c(Cl)cccc3-n3ccc(C(C)(C)O)n3)nc(Nc3cc[nH]c3)nc12 [Compound 277]
A (A=greater than 200 fold)	CC(C)c1cnn2c(NCc3ccccc3-c3ccc4ccccc4n3)nc(NCC[C@@H](O)CN)nc12 [Compound 251]

Same assay, conditions: CDK5/CDK7

CDK5/CDK7: Selectivity of CDK7 inhibition over CDK5 inhibition	Compound
A (A=greater than 200 fold)	CC(C)c1cnn2c(NCc3ccccc3-c3ccc4ccccc4n3)nc(N3CCNC[C@H]3CO)nc12 [Compound 271]
C (C=less than 20 fold)	CC(C)c1cnn2c(NCc3c(Cl)cccc3-n3ccc(C(C)(C)O)n3)nc(Nc3cc[nH]c3)nc12 [Compound 277]
A (A=greater than 200 fold)	CC(C)c1cnn2c(NCc3ccccc3-c3ccc4ccccc4n3)nc(NCC[C@@H](O)CN)nc12 [Compound 251]

Same assay, conditions: read-out: CDK7 enzymatic activity (IC50 activity range)

IC50	Compound
< 100 nM	CC(C)c1cnn2c(NCc3ccccc3-c3ccc4ccccc4n3)nc(N3CCNC[C@H]3CO)nc12 [Compound 271]
> 1000 nM	CC(C)c1cnn2c(NCc3c(Cl)cccc3-n3ccc(C(C)(C)O)n3)nc(Nc3cc[nH]c3)nc12 [Compound 277]
< 100 nM	CC(C)c1cnn2c(NCc3ccccc3-c3ccc4ccccc4n3)nc(NCC[C@@H](O)CN)nc12 [Compound 251]

Each compound was assayed on H460 (assay: Cellular H460 viability assay (CellTiter-Glo, 72 hours)). Details: Homo sapiens, NCI-H460.
Type: cell-based
Method in brief: (§2)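 Mycoplasma-tested cells, seeded at densities chosen for each line, received compound or DMSO vehicle (under 0.1% final) for 72 hours. Duplicate cultures were then read for viability by CellTiter-Glo luminescence.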

IC50	Compound
< 1000 nM	CC(C)c1cnn2c(NCc3ccccc3-c3ccc4ccccc4n3)nc(N3CCNC[C@H]3CO)nc12 [Compound 271]
< 1000 nM	CC(C)c1cnn2c(NCc3ccccc3-c3ccc4ccccc4n3)nc(NCC[C@@H](O)CN)nc12 [Compound 251]

The compounds below were run on MV4-11 (assay: Cellular MV4-11 viability assay (CellTiter-Glo, 72 hours)). Details: Homo sapiens.
Type: cell-based
Method in brief: as §2

IC50	Compound
< 1000 nM	CC(C)c1cnn2c(NCc3ccccc3-c3ccc4ccccc4n3)nc(N3CCNC[C@H]3CO)nc12 [Compound 271]
< 1000 nM	CC(C)c1cnn2c(NCc3ccccc3-c3ccc4ccccc4n3)nc(NCC[C@@H](O)CN)nc12 [Compound 251]

The compounds below were run on A2780 (assay: Cellular A2780 viability assay (CellTiter-Glo, 72 hours)). Details: Homo sapiens.
Type: cell-based
Method in brief: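 Compound exposure lasted 72 h at 37° C, 5% CO2, over 0.0015–10 uM, DMSO kept under 0.1%, with dosing 24 h after seeding. Seeding: A2780 1×10^3, OVCAR-3 5×10^3, MM.1S 1×10^4 cells/well in 10% FBS RPMI-1640. Duplicate CellTiter-Glo luminescence readout.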

IC50	Compound
≤ 1000 nM	CC(C)c1cnn2c(NCc3ccccc3-c3ccc4ccccc4n3)nc(N3CCNC[C@H]3CO)nc12 [Compound 271]
> 10000 nM	CC(C)c1cnn2c(NCc3c(Cl)cccc3-n3ccc(C(C)(C)O)n3)nc(Nc3cc[nH]c3)nc12 [Compound 277]
≤ 1000 nM	CC(C)c1cnn2c(NCc3ccccc3-c3ccc4ccccc4n3)nc(NCC[C@@H](O)CN)nc12 [Compound 251]

The compounds below were run on OVCAR-3 (assay: Cellular OVCAR-3 viability assay (CellTiter-Glo, 72 hours)). Details: Homo sapiens.
Type: cell-based
Source text: Human T-cell acute lymphoblastic leukemia cell line, MOLT-4 (ATCC, Cat #CRL-1582), Human multiple myeloma cell line, RPMI-8226 (Invitrogen, Cat #22400-089) and MM.1S (ATCC, Cat #CRL-2974), NSCLC (Non-small cell lung cancer) cell line H460 (ATCC, Cat #HTB-177), Human colon colorectal carcinoma cell line HCT116 (ATCC, Cat #CCL-247), Human acute monocytic leukemia cell line MV4-11 (ATCC, Cat #CRL-9591), OVCAR-3 (ATCC, Cat #HTB-161) and A2780 (ECACC, Cat #93112519) were obtained from ATCC. Cells were grown in RPMI-1640 media (Invitrogen, Cat #22400-089) supplemented with 10% FBS (Invitrogen, Cat #10099141) and 1% penicillin/streptomycin (Invitrogen, Cat #15070063) and cultured at 37° C., 5% CO2 in a humidified chamber. All cell lines were routinely tested for mycoplasma.
The effect of the CDK7 inhibitor to inhibit the growth of target cancer cells was evaluated through the 72 hours time period of viability assay. Briefly, the candidate cell line ware plated in 96 well plate at the following density of cells respectively. 1×10^4 cells/well for MOLT-4, RPMI-8226, MV4-11 and MM.1S, 5×10^3 for H460, HCT116 and OVCAR-3 and IX 10^3 for A2780. After 24 hours, the cells were treated with various concentrations of the compound (ranging from 0.0015 uM to 10 uM). DMSO solvent without compound served as a control and final DMSO concentration less than 0.1%. After 72 hours of incubation at 37° C., 5% CO2 incubator, cells were analyzed for the viability using the CellTiter-Glo Luminescent Cell Viability Assay (Promega, Cat #G7570). All viability assays were performed in duplicate and Luminescence was read using an Envision (Perkin Elmer, USA). Data was analyzed using XLfit software.

IC50	Compound
≤ 1000 nM	CC(C)c1cnn2c(NCc3ccccc3-c3ccc4ccccc4n3)nc(N3CCNC[C@H]3CO)nc12 [Compound 271]
> 10000 nM	CC(C)c1cnn2c(NCc3c(Cl)cccc3-n3ccc(C(C)(C)O)n3)nc(Nc3cc[nH]c3)nc12 [Compound 277]
1000 to 10000 nM	CC(C)c1cnn2c(NCc3ccccc3-c3ccc4ccccc4n3)nc(NCC[C@@H](O)CN)nc12 [Compound 251]
